# Experimental data: a melting point compilation (Tetko et al.; mined from patent text by program, amines drawn as free bases though some values may be those of a salt)
row,Compound,melting point
1,O=C(c1ccccc1)c1cc(C(F)(F)F)ccc1NC=C[N+](=O)[O-],196 to 198 °C
2,CN(CCN1CCOCC1)Cc1ccc(COc2cccc3c2CN(C2CCC(=O)NC2=O)C3=O)cc1 (stereo unspecified),193 to 195 °C
3,O=C(Nc1ccccc1)OCC(=O)c1ccccc1,146 to 148 °C
4,CCOC(=O)CCC(=O)Oc1cc([N+](=O)[O-])cc([N+](=O)[O-])c1OC(=O)CCC(=O)OCC,60 to 63 °C
5,CCn1c(COC)nc(C(C)C)c1Sc1cc(C#N)cc(C#N)c1,156 to 158 °C
6,CC(C)(C)c1cc(CN(C=O)n2ccnc2)cc(C(C)(C)C)c1O,167 °C
7,Cc1c(Cl)cccc1S(=O)(=O)Nc1ccc2ncncc2c1,> 270 °C
8,COc1cc(C=O)ccc1OCCCCl,53 to 55 °C
9,Cc1cc(C)c2ncc(NC(=O)Nc3cc(C(C)C)c(O)c(C(C)C)c3)c(-c3ccccc3Cl)c2c1,194 to 196 °C
10,CCCCCN(Cc1ccc(-c2ccccc2S(=O)(=O)NC(=O)c2ccccc2Cl)cc1)C(=O)N1CCc2ccccc21,83 to 85 °C
11,COCn1cc(C(=O)c2ccccc2)c(-c2cccc(Cl)c2)n1,106 to 108 °C
12,COc1c(C(N)=O)oc2c3ccccc3n(C)c12,174 to 177 °C
13,CCOC(=O)c1nn(Cc2ccc(Cl)cc2C)c2ccccc12,120 to 122 °C
14,CC(C)(C)c1cc(SC[Si](C)(C)C)cc(C(C)(C)C)c1O,100 to 101 °C
15,CN(C)C(=O)c1ccc(C(C)(C)C)c(N)c1,186 to 188 °C
16,CCOCCNc1nc(C)c(CCO)c(=O)[nH]1,172 °C
17,ON=Cc1ccc(OCc2coc(-c3ccccc3)n2)cc1,184 to 186 °C
18,CCCOc1ccc(CC(=O)NCC(=O)O)cc1Cl,110 to 112 °C
19,CCCCc1c2c(nc3cc(F)c(F)cc13)-c1cc3c(c(=O)n1C2)COC(=O)CC3(O)CC (stereo unspecified),> 275 °C
20,CCc1ccc2c(=O)c3ccccc3ccc2c1,62 to 64 °C

row,Compound,melting point
1,Nc1nc2c(sc(=O)n2CCCCC(=O)O)c(=O)[nH]1,263 to 265 °C
2,C=CCCC(O)=C(C#N)C(=O)Nc1ccc(C(F)(F)F)cc1,145 °C
3,N#Cc1ccc(C(F)(F)F)cc1Sc1ccccc1,51 °C
4,COc1ccc(C(O)Cc2ccncc2)cc1OC1CCCC1 (stereo unspecified),97 to 101 °C
5,Cn1nnc(-c2ccc(C#CC3(O)CN4CCC3CC4)cc2)n1 (stereo unspecified),228 to 230 °C
6,O=C(O)COc1cccc2c1CCc1sc(Sc3ccc([N+](=O)[O-])cc3[N+](=O)[O-])nc1-2,223 to 226 °C
7,CN(C)CC#CCN1CCNC1=O,83 to 87 °C
8,CN(C)Cc1cc(C(C)(C)c2cc(CN(C)C)c(O)c(CN(C)C)c2)cc(CN(C)C)c1O,88 to 90 °C
9,Cc1ccc(OC2CCN(CCc3c[nH]c4ccccc34)CC2)cc1,115 to 117 °C
10,CNCC1(CF)CCN(c2c(F)cc3c(=O)c(C(=O)O)cn(C4CC4)c3c2OC)C1 (stereo unspecified),208 to 210 °C
11,O=c1c2cc(OCc3ccccc3)ccc2[nH]c2c([N+](=O)[O-])cc([N+](=O)[O-])c(Cl)c12,217 to 220 °C
12,CC1(C)C=C(c2cccnc2)c2cc(C#N)ccc2O1,98 to 99 °C
13,NC(=O)c1ncn2c1CN=C(c1ccccc1Cl)c1cc(Cl)ccc1-2,> 300 °C
14,O=C(Nc1ccc(C(=O)N2Cc3cccn3Cc3ccccc32)c(Cl)c1)c1ccccc1-c1cccs1,132 to 136 °C
15,Cc1cc(O)c(S(=O)Cc2ccc(Cl)c(Cl)c2)c(=O)o1 (stereo unspecified),144 to 146 °C
16,C#Cc1cn(C2CC(O)C(CO)O2)c(=O)n(C(=O)c2ccccc2)c1=O (stereo unspecified),156 to 157 °C
17,CCOC(=O)C(=O)c1csc(NC(c2ccccc2F)c2ccccc2F)n1,122 to 124 °C
18,COc1cccc2c(=O)[nH]c(-c3cc(C)c(OCCN4CCCC4)c(C)c3)nc12,231 to 232 °C
19,Clc1ccc(C2=NNCC2c2ccccc2)cc1 (stereo unspecified),156 to 162 °C

# Second part, the compound after the results:
row,melting point,Compound
1,121 to 123 °C,CN1CCC2(CC1)SC(c1ccc(Cl)cc1)c1ccccc12 (stereo unspecified)
2,84 to 86 °C,CCCCCCNC(=O)OC1CCN(C(=O)OCCCCCCNC(=O)Oc2ccc(Oc3ccccc3)cc2)CC1
3,219 to 221 °C,Nc1ccc(-c2nc3ccc(Br)cc3s2)cc1
4,154 to 155 °C,N#CCCNC(=O)c1cccc(-c2cccc3cc(Cc4cccc(C(F)(F)F)c4)oc23)c1
5,135 to 136 °C,COCCOCCOCCOCCOc1cc(NC(=O)OC(C)(C)C)c(NC(=O)CC(=O)c2cccc(C#N)c2)cc1C#Cc1ccccc1
6,173 to 176 °C,O=c1ccn(C(OC2CCCCO2)c2ccccn2)cc1 (stereo unspecified)
7,142 to 143 °C,CCCS(=O)(=O)c1sc(C(N)=O)c2c1-c1c(cnn1C)CC2
8,196 to 197 °C,Cc1nc(N2CCC(Cc3ccc(F)cc3)C2=O)sc1C(=O)NCc1ccc(F)cc1 (stereo unspecified)
9,161 °C,NC(=S)Nc1ccccc1O
10,150 to 157 °C,CC(CS)C(=O)NC(C(=O)O)C(C)C (stereo unspecified)
11,75 to 78 °C,CCCc1nc(-n2cccc2)c(C#N)[nH]1
12,200 to 203 °C,CC(=O)c1cc(-c2c(Cl)ccc(C(=O)O)c2Cl)n(C)n1
13,161 to 164 °C,CNc1ccc(OC2CCN(c3ccncc3)CC2)cc1
14,257 to 258 °C,CN(c1ccc(C(=O)O)cc1)c1cc2c3c(c1)CCCC3(C)CCC2
15,> 300 °C,Cc1nc2cc3[nH]c(-c4ccncc4)nc3cc2s1
16,98 °C,COCCCNC1(c2ccccc2Cl)C(=O)N(S(=O)(=O)c2ccc3c(c2)CCN3C(=O)OC)c2ccc(Cl)cc21 (stereo unspecified)

row,melting point,Compound
1,136 to 139 °C,Cc1noc(=O)c2ccc(NC(=O)C(=O)CC3(c4cccc(C(F)(F)F)c4)CC3)cc12
2,150 to 152 °C,COc1cc2c(cn1)C(=O)N(C(C)C)C2=O
3,104 to 106 °C,Nc1cnccc1Oc1ccc(Cl)cc1
4,85 °C,O=C(C(=O)c1ccc(Cl)cc1Cl)c1ccncc1
5,230 to 232 °C,C=C(F)C(F)(F)n1ncc(-c2ccc(S(N)(=O)=O)cc2)c(-c2ccc(F)cc2)c1=O
6,73 to 75 °C,O=C(O)CCCCCCCCc1ccc(Cl)cc1
7,102 to 104 °C,CCN(CC)c1cccc(-c2ccnc3c(C(=O)c4cccs4)cnn23)c1
8,220 to 221 °C,O=C(Nc1nc2n(n1)Cc1ccccc1-2)c1ccccc1
9,134 to 137 °C,Cc1ccc(-n2cccc2-c2ccc(S(C)(=O)=O)cc2)cc1C
10,33.8 to 35.5 °C,C=CC(=O)OCCCCCCC(CCCCCCOC(=O)C=C)C(=O)OCCCCCCCCCCCCCCCCOc1ccc(-c2cccc(F)c2F)cc1
11,101 to 104 °C,CC(C)C1(C)NC(c2ccc(CO)cn2)=NC1=O (stereo unspecified)
12,142 to 143 °C,CCOC(=O)/C=C/c1cn(-c2ccccc2)nc1OCc1ccc(OCc2nc(-c3ccco3)oc2C)cc1
13,75 to 76.5 °C,CCCCCCCCC(SCCCCCC)C(=O)Nc1c(SC)cc(C)nc1SC (stereo unspecified)
14,201 to 203 °C,O=C(O)CCn1[nH]c(=O)c2ccccc2c1=O
15,119 to 121 °C,O=C1CCC(N2Cc3c(OCc4ccc(CN5CCCOCC5)cc4)cccc3C2=O)C(=O)N1 (stereo unspecified)
16,150 to 151 °C,CC(C)COc1ccc(C(=O)N/C(=C\c2ccc(OCC(F)F)cc2)C(=O)NCCO)cc1
